The text below walks through data of patent EP0354522A1, “Use of alpha-aminoboronic acid derivatives in prevention and treatement of viral diseases” (HOECHST AKTIENGESELLSCHAFT, priority 1988, dated 1990).

Broadly, the IC50 is the midpoint of a concentration-inhibition curve. A low value points to higher potency.

This test concerns the target T1, HIV-Protease (Human immunodeficiency virus type 1 group M subtype B, UniProt P04585).
T1 construct: Max-Planck-Institut für Molekulare Genetik, Berlin
Nature of the test: HIV protease test (cleavage of heptapeptide Ser-Phe-Asn-Phe-Pro-Gln-Ile, HPLC quantification of Ser-Phe-Asn-Phe). The class given is biochemical. As to conditions: 2 h, 37°C; for Restakt. bei 10^-4 M / activity at 100 µM: residual enzyme activity at 10^-4 M inhibitor, 100 % = mean of runs without inhibitor, pH ca. 6,0, 1 % DMSO; for Restakt. bei 10^-4 M: 100 µM; for activity at 100 µM: read-out: Restakt. bei 10^-4 M; for IC50: cloned HIV protease, pH ca. 6,0. The text has this:
Als synthetisches Substrat ist ein Heptapeptid der Sequenz Ser-Phe-Asn-Phe-Pro-Gln-Ile geeignet. Diese Sequenz tritt im natürlichen Substrat der Protease auf und liefert bei der autokatalytischen Freisetzung nach einer Phe-Pro-Spaltung den N-terminalen Beginn der Proteasesequenz (Pro-Gln-Ile...).
Es wird eine klonierte HIV-Protease (Max-Planck-Institut für Molekulare Genetik, Berlin) benutzt. [drawing 5]
Von den Reaktionsprodukten wird Ser-Phe-Asn-Phe zur Abtrennung und quantitativen Bestimmung mittels HPLC herangezogen.
Nach 2 Stunden bei 37°C werden die Ansätze mit 225 µl HPLC-Elutionsmittel (s.u.) gestoppt. Etwa 150 µl des zentrifugierten Überstands (Eppendorf-Zentrifuge) werden in Mikrovials gefüllt. Das Injektionsvolumen für die HPLC-Trennung beträgt 20 µl. Ser-Phe-Asn-Phe wird durch Vergleich mit einem externen Standard bekannter Konzentration (0,5 µg/ 20 µl) quantitativ bestimmt und stellt die Meßgröße der Enzymaktivität (µg Tetrapeptid pro 20 µl Meßprobe) dar. Bezugswert (= 100 % Enzymaktivität) ist der Mittelwert aus 2 oder mehr Ansätzen ohne Inhibitor. Als Standard-Inhibitor wird Pepstatin A (10⁻⁴ oder 10⁻⁵ M) verwendet.
• a) Substratlösung: 2 mg Ser-Phe-Asn-Phe-Pro-Gln-Ile werden in 1 ml MGTE 15-Puffer gelöst. • b) Testsubstanzen: Diese werden 10⁻² oder 10⁻³ M in Dimethylsulfoxid (DMSO) gelöst und 1 : 40 mit MGTE 15-Puffer verdünnt; 10 µl dieser Lösung werden pro Ansatz verwendet; die Endkonzentration des Präparates beträgt 10⁻⁴ bzw. 10⁻⁵ M; die DMSO-Konzentration in allen Testansätzen ist 1 %. Für IC₅₀-Bestimmungen wird das Präparat, ausgehend von 10⁻² M, mit 100 % DMSO in der geeigneten Weise verdünnt. • c) Proteaselösung: Das Enzym wird mit MGTE 25-Puffer auf eine geeignete Konzentration verdünnt. • d) MGTE 15/25-Puffer 20 mM Morpholinoethansulfonsäure (MES) 15 (25) % (w/v) Glyzerin 0,1 % (v/v) Triton® X 100 (vgl. Merck Index 10, 6601) 5 mM EDTA 0,5 M NaCl 1 mM Dithiothreit (nur für MGTE 25) 1 mM Phenylmethylsulfonylfluorid (PMSF) Der pH-Wert soll ca. 6,0 betragen. • e) HPLC-Elutionsmittel: Eine 0,1 M Phosphorsäure-Lösung wird mit Triethylamin auf pH 2,5 eingestellt. Aus dieser Lösung wird ein Phosphorsäure-Acetonitril-Gemisch mit 22,6 Gewichts-Prozent Acetonitril hergestellt.
Säule: Radial Pak LC Cartridge, 8 mm/C18, 5 µ (der Fa. Waters, USA). Fluß: 1 ml/min Detektoreinstellung: 215 nm, 0,08 AU Zeit pro Analyse: 12 min; Retentionszeiten: Heptapeptid ca. 9,5 min, Tetrapeptid ca. 5,2 min Laufmittel: 77,4 Gew.-% 0,1 M H₃PO₄/pH 2,5 22,6 Gew.-% Acetonitril

Consider “Iva-Phe-His-(Cyclooctylmethyl,dihydroxyboryl)methylamid [Beispiel 24]”, for which the “Restakt. bei 10^-4 M” value is given as 78%.

Consider `CCC[C@H](NC(=O)C(Cc1ccccc1)CS(=O)(=O)C(C)(C)C)C(=O)NC(Cc1ccccc1)B1OC(C)(C)C(C)(C)O1` (stereo partly drawn) [Beispiel 44], for which the activity at 100 µM came out at 72%.

“(3-t-Butylsulfonyl)propionyl-Nva-(1-Naphthylmethyl, dihydroxyboryl)methylamid [Beispiel 27]”: the “Restakt. bei 10^-4 M” value is on record as 77%.

As to “Iva-Phe-Nva-(Cyclohexylmethyl,dihydroxyboryl)methylamid [Beispiel 5]”, the IC50 was 70 µM and the “Restakt. bei 10^-4 M” value was found to be 38%.

With `CCC[C@H](NC(=O)[C@H](Cc1ccccc1)NC(=O)CC(C)C)C(=O)NC(Cc1cccc2ccccc12)B1OC(C)(C)C(C)(C)O1` (stereo partly drawn) [Beispiel 10, Iva-Phe-Nva-[(1-Naphthylmethyl),(4,4,5,5-tetramethyl-1,3,2-dioxaborolan-2-yl)]methylamid], the activity at 100 µM was determined as 77%.

For the compound `CC1(C)OB(C(CC2CCCCC2)NC(=O)[C@H](CC(N)=O)NC(=O)C(Cc2cccc3ccccc23)CS(=O)(=O)C(C)(C)C)OC1(C)C` (stereo partly drawn) [Beispiel 53, [3-t-Butylsulfonyl,2-(1-naphthylmethyl)]propionyl-Asn-[cyclohexylmethyl,(4,4,5,5-tetramethyl-1,3,2-dioxaborolan-2-yl)]methylamid], the IC50 amounted to 10 µM and the activity at 100 µM came out at 10%.

For “[3-t-Butylsulfonyl,2-(2-thienylmethyl)]propionyl-Nva-(Cyclohexylmethyl,dihydroxyboryl)methylamid [Beispiel 30]”, the “Restakt. bei 10^-4 M” value is 52%.

For the compound `CC1(C)OB(C(Cc2ccccc2)NC(=O)[C@H](CC(N)=O)NC(=O)C(Cc2ccccc2)CS(=O)(=O)C(C)(C)C)OC1(C)C` (stereo partly drawn) [Beispiel 45, (2-Benzyl,3-t-butylsulfonyl)propionyl-Asn-[Benzyl,(4,4,5,5-tetramethyl-1,3,2-dioxaborolan-2-yl)]methylamid], the IC50 stood at 100 µM and the activity at 100 µM worked out at 49%.

Take “Iva-Thi-His-(Cyclohexylmethyl,dihydroxyboryl)methylamid [Beispiel 9]”: the “Restakt. bei 10^-4 M” value is recorded as 93%.

`CCC[C@H](NC(=O)C(Cc1ccccc1)CS(=O)(=O)C(C)(C)C)C(=O)NC(CC(CC)CC)B1OC(C)(C)C(C)(C)O1` (stereo partly drawn) [Beispiel 49, (2-Benzyl,3-t-butylsulfonyl)propionyl-Nva-[3-Ethyl,1-(4,4,5,5-tetramethyl-1,3,2-dioxaborolan-2-yl)]pentylamid]: the activity at 100 µM amounted to 46%.

As to `CCC[C@H](NC(=O)[C@H](Cc1ccccc1)NC(=O)CC(C)C)C(=O)NC(CC1CCCCC1)B1OC(C)(C)C(C)(C)O1` (stereo partly drawn) [Beispiel 1, Iva-Phe-Nva-[Cyclohexylmethyl,(4,4,5,5-tetramethyl-1,3,2-dioxaborolan-2-yl)]methylamid], the IC50 turned out to be 40 µM and the activity at 100 µM stood at 28%.

In the case of `CCC[C@H](NC(=O)C(Cc1ccccc1)CS(=O)(=O)C(C)(C)C)C(=O)NC(B1OC(C)(C)C(C)(C)O1)C1CCCCCC1` (stereo partly drawn) [Beispiel 46], the IC50 stood at 40 µM and the activity at 100 µM stood at 45%.

On to `CCC[C@H](NC(=O)C(Cc1cccc2ccccc12)CS(=O)(=O)C(C)(C)C)C(=O)NC(CC(CC)CC)B1OC(C)(C)C(C)(C)O1` (stereo partly drawn) [Beispiel 48, [3-t-Butylsulfonyl,2-(1-naphthylmethyl)]propionyl-Nva-[3-Ethyl,1-(4,4,5,5-tetramethyl-1,3,2-dioxaborolan-2-yl)]pentylamid], for which the IC50 was determined as 60 µM and the activity at 100 µM was determined as 32%.

`CC(C)CC(=O)N[C@@H](Cc1ccccc1)C(=O)N[C@@H](Cc1c[nH]cn1)C(=O)NC(CC1CCCCCCC1)B1OC(C)(C)C(C)(C)O1` (stereo partly drawn) [Beispiel 17, Iva-Phe-His-[Cyclooctylmethyl,(4,4,5,5-tetramethyl-1,3,2-dioxaborolan-2-yl)]methylamid]: the IC50 amounted to 200 µM and the activity at 100 µM was found to be 52%.

In the case of `CCC[C@H](NC(=O)C(Cc1ccccc1)CS(=O)(=O)C(C)(C)C)C(=O)NC(CC1CCCCC1)B1OC(C)(C)C(C)(C)O1` (stereo partly drawn) [Beispiel 35, (2-Benzyl,3-t-butylsulfonyl)propionyl-Nva-[Cyclohexylmethyl,(4,4,5,5-tetramethyl-1,3,2-dioxaborolan-2-yl)]methylamid], the IC50 came to 40 µM and the activity at 100 µM is 22%.

With `CCC[C@H](NC(=O)[C@H](Cc1ccccc1)NC(=O)CC(C)C)C(=O)NC(CC1CCC(C)CC1)B1OC(C)(C)C(C)(C)O1` (stereo partly drawn) [Beispiel 14, Iva-Phe-Nva-[(4-Methylcyclohexyl)methyl,(4,4,5,5-tetramethyl-1,3,2-dioxaborolan-2-yl)]methylamid], the activity at 100 µM amounted to 75%.

For `CC(C)CC(=O)N[C@@H](Cc1cccs1)C(=O)N[C@@H](Cc1c[nH]cn1)C(=O)NC(CC1CCCCC1)B1OC(C)(C)C(C)(C)O1` (stereo partly drawn) [Beispiel 4], the activity at 100 µM was found to be 96%.

Regarding `CCCC[C@H](NC(=O)[C@H](Cc1ccccc1)NC(=O)CC(C)C)C(=O)NC(CC1CCCCC1)B1OC(C)(C)C(C)(C)O1` (stereo partly drawn) [Beispiel 2, Iva-Phe-Nle-[Cyclohexylmethyl,(4,4,5,5-tetramethyl-1,3,2-dioxaborolan-2-yl)]methylamid], the activity at 100 µM is 74%.

As to “Iva-Phe-Nva-[Cyclohexylmethyl,[(N-B)-(2,2′-iminodiethanolato)-boryl]]methylamid [Beispiel 6]”, the “Restakt. bei 10^-4 M” value was found to be 41%.

As to “[3-t-Butylsulfonyl,2,(2-thienylmethyl)]propionyl-Thi-(Cyclohexylmethyl,dihydroxyboryl)methylamid [Beispiel 31]”, the “Restakt. bei 10^-4 M” value was determined as 59%.

For the compound `CCC[C@H](NC(=O)C(Cc1ccccc1)CS(=O)(=O)C(C)(C)C)C(=O)NC(B1OC(C)(C)C(C)(C)O1)C(C)CC` (stereo partly drawn) [Beispiel 50, (2-Benzyl,3-t-butylsulfonyl)propionyl-Nva-[2-Methyl,1-(4,4,5,5-tetramethyl-1,3,2-dioxaborolan-2-yl)]butylamid], the activity at 100 µM is 53%.

Regarding `CC(C)[C@H](NC(=O)C(Cc1cccc2ccccc12)CS(=O)(=O)C(C)(C)C)C(=O)NC(CC1CCCCC1)B1OC(C)(C)C(C)(C)O1` (stereo partly drawn) [Beispiel 51, [3-t-Butylsulfonyl, 2-(1-naphthylmethyl)]propionyl-Val-[cyclohexylmethyl,(4,4,5,5-tetramethyl-1,3,2-dioxaborolan-2-yl)]methylamid], the IC50 turned out to be 5 µM and the activity at 100 µM came to 5%.

Turning to `CCCC(NC(=O)C(Cc1ccccc1)NC(=O)CC(C)C)C(=O)NC(CC1CCCCC1)B1OC2CC3CC(C3(C)C)C2(C)O1` (stereo not drawn) [Beispiel 12, Iva-Phe-Nva-[Cyclohexylmethyl, (-)-Pinandioxyboryl]methylamid], the activity at 100 µM was found to be 64%.

On to “Iva-Phe-Nva-(Cyclooctylmethyl,dihydroxyboryl)methylamid [Beispiel 20]”, for which the “Restakt. bei 10^-4 M” value came out at 27%.

Regarding `CCC[C@H](NC(=O)C(Cc1cccc2ccccc12)CS(=O)(=O)C(C)(C)C)C(=O)NC(CC(C)C)B1OC(C)(C)C(C)(C)O1` (stereo partly drawn) [Beispiel 41, [3-t-Butylsulfonyl,2-(1-naphthylmethyl)]propionyl-Nva-[3-methyl,1-(4,4,5,5-tetramethyl-1,3,2-dioxaborolan-2-yl)]butylamid], the activity at 100 µM is 35%.

For `CCC[C@H](NC(=O)C(Cc1cccc2ccccc12)CS(=O)(=O)C(C)(C)C)C(=O)NC(CC1CCCC1)B1OC(C)(C)C(C)(C)O1` (stereo partly drawn) [Beispiel 47, [3-t-Butylsulfonyl,2-(1-naphthylmethyl)]propionyl-Nva-[Cyclopentylmethyl,(4,4,5,5-tetramethyl-1,3,2-dioxaborolan-2-yl)]methylamid], the midpoint of inhibition, the IC50, lay at 10 µM and the activity at 100 µM was found to be 16%.
